Laboratory results: US4923969A, “Preparation of 99m Tc radiopharmaceuticals” (The Commonwealth of Australia, priority 1983, dated 1990)

Assay: Stability of dried 99mTcNCl4- preparation
Format: physicochemical
Method: Samples of the ^99m TcNCl4^- preparation were taken to dryness in a rotary evaporator and stored for 24 hours (a) in air at room temperature, (b) at 80° C., and (c) at room temperature and 100% humidity. They were then used to prepare ^99m TcN-DTPA by addition of ligand as before.

storage time for which the dry reagent was stable ("stable for up to") (dry, air at room temperature, 80° C., or room temperature and 100% humidity): ≥ 24 h
Structure (SMILES): [N]#[99Tc-]([Cl])([Cl])([Cl])[Cl].[Na+] [^99m TcNCl4^-, sodium tetrachloronitridotechnetate]
chromatographic behaviour (HPLC) after storage of the dry reagent (24 hours in air at room temperature, at 80° C., or at room temperature and 100% humidity, tested as 99mTcN-DTPA): No significant difference in chromatographic behaviour | stability of the dry preparation for distribution (dry preparation): sufficiently stable to be prepared in a central laboratory or manufacturing site and distributed to users
